In patent US10517850B2, “Combination of TAFIa inhibitor with plasminogen activator” (DAIICHI SANKYO COMPANY, LIMITED, priority 2015, dated 2019):

Experiments:
[1] = test system: fibrinolytic activity (D-dimer level in plasma); experiment: Test on combined use with t-PA: tissue factor-infused rats, plasma D-dimer level as index for fibrinolytic activity; assay type: in vivo, male Wistar rats; conditions: for D-dimer level Mean: jugular vein, blood at 45 min, N=7, control 5.0
Experimental: 1. Preparation of Administration Solution
(1) (2S)-5-Amino-2-{[1-(trans-4-methylcyclohexyl)-1H-imidazol-4-yl]methyl}valeric acid p-toluenesulfonate anhydrate (hereinafter, referred to as “compound A”) was dissolved in saline to prepare a 1.0 mg/mL solution. The solution was further diluted to 0.0050 mg/mL using saline. The dose of compound A was indicated in terms of a free form (conversion factor: 0.6301).
(2) t-PA (alteplase (Activacin (registered trademark) for Injection 6,000,000), Kyowa Hakko Kirin Co., Ltd.) was adjusted to 600,000 I.U./mL (which was defined as 1.0 mg/mL) with injectable water included therein. The resulting solution was further diluted to 0.17, 0.083, and 0.042 mg/mL using saline.
(3) The 0.0050 mg/mL compound A solution was mixed with an equal amount of saline or the 0.042 mg/mL t-PA solution to respectively prepare administration solutions for a compound A (2.5 μg/kg) group and a combination group. The 0.17, 0.083, and 0.042 mg/mL t-PA solutions were mixed with an equal amount of saline to respectively prepare administration solutions for t-PA (0.083, 0.042, and 0.021 mg/kg) groups.
(4) 4 mL of saline was added to 10 mL (standard) of a tissue factor (Dade (registered trademark) Innovin (registered trademark), Sysmex Corp.) to prepare a tissue factor solution.
(1) Ten-week-old male Wistar rats (Japan SLC, Inc.) were fasted from a day before the experiment. On the basis of their body weights measured in the morning on the day of the experiment, 7 rats were assigned to each of 6 groups: a control (saline) group, a compound A (2.5 μg/kg) group, t-PA (0.021, 0.042, and 0.083 mg/kg) groups, and a combination group of compound A (2.5 μg/kg) and t-PA (0.021 mg/kg).
(2) These rats were anesthetized by the administration of 100 mg/kg thiopental sodium (Ravonal (registered trademark), Mitsubishi Tanabe Pharma Corp.), and the tissue factor solution was continuously administered at 7.5 mL/kg/hr for 20 minutes from the jugular veins. 25 minutes after the start of the administration of the tissue factor, the administration solution for each group was rapidly administered from the jugular veins. 45 minutes after the start of the administration of the tissue factor, blood was collected from the jugular veins into syringes supplemented with citric acid in advance, and plasma was prepared by centrifugation. The plasma was diluted 20-fold using a factor diluent (LSI Medience Corp.). D-dimer levels were measured using LPIA-Ace D-D dimer II and ACL TOP 500 CTS (Instrumentation Laboratory) and used as an index for fibrinolytic activity (FIG. 1).
(1) Microsoft Excel 2003 and SAS System Release 8.2 were used in statistical analysis.
(2) For each group, the basic statistics (mean and standard error) of the D-dimer levels were calculated and used as results relating to fibrinolytic activity (Table 1).
(3) The comparison of the compound A (2.5 μg/kg) group with the control (saline) group was carried out by the Student's t test. The calculated P value was rounded off and indicated down to four decimal places, and the significance level was set to two-sided 5%.
(4) The comparison of the t-PA (0.021, 0.042, and 0.083 mg/kg) groups with the control (saline) group was carried out by the parametric Dunnett's test. The calculated P value was rounded off and indicated down to four decimal places, and the significance level was set to two-sided 5%.
(5) The comparison of the compound A (2.5 μg/kg) group or the t-PA (0.021 mg/kg) single administration group with the combination group was carried out by the parametric Dunnett's test. The calculated P value was rounded off and indicated down to four decimal places, and the significance level was set to two-sided 5%.
(6) The comparison of the compound A (2.5 μg/kg) group or the t-PA (0.021 mg/kg) single administration group with the combination group was carried out by two-way ANOVA. […]

[2] = test system: fibrinolytic activity (D-dimer level in plasma); experiment: Test on combined use with u-PA: tissue factor-infused rats, plasma D-dimer level as index for fibrinolytic activity; assay type: in vivo, male Wistar rats
Experimental: (1) u-PA (urokinase injection “Fuji” (registered trademark) 60,000, Wakamoto Co., Ltd.) was adjusted to 90 kU/mL with injectable water.
(2) Compound A was dissolved in saline to prepare a 1.0 mg/mL solution. The solution was further diluted to 0.0050 mg/mL using saline. The dose of compound A was indicated in terms of a free form (conversion factor: 0.6301).
(3) Appropriate amounts of saline, the 90 kU/mL u-PA solution, and the 0.0050 mg/mL compound A solution were mixed to respectively prepare administration solutions for a u-PA (30 kU/kg) group, a compound A (2.5 μg/kg) group, and a combination group of u-PA (30 kU/kg) and compound A (2.5 μg/kg).
(4) 5 mL of saline was added to 10 mL (standard) of a tissue factor (Dade (registered trademark) Innovin (registered trademark), Sysmex Corp.) to prepare a tissue factor solution.
(1) Eleven-week-old male Wistar rats (Japan SLC, Inc.) were fasted from a day before the experiment. On the basis of their body weights measured in the morning on the day of the experiment, 8 rats were assigned to each of 4 groups: a control (saline) group, a u-PA (30 kU/kg) group, a compound A (2.5 μg/kg) group, and a combination group of u-PA (30 kU/kg) and compound A (2.5 μg/kg). […]
(2) For each group, the basic statistics (mean and standard error) of the D-dimer levels were calculated and used as results relating to fibrinolytic activity (Table 2). […]

| Molecule | D-dimer level Mean ([1]; t-PA 0.021 mg/kg alone) | fibrinolytic activity (D-dimer level) with respect to the control (saline) group ([1]; t-PA 0.021 mg/kg, parametric Dunnett's test, P=0.3080) | D-dimer level Mean ([1]; t-PA 0.042 mg/kg alone) | fibrinolytic activity (D-dimer level) with respect to the control (saline) group ([1]; t-PA 0.042 mg/kg, parametric Dunnett's test, P<0.0001) | D-dimer level Mean ([1]; t-PA 0.083 mg/kg alone) | fibrinolytic activity (D-dimer level) with respect to the control (saline) group ([1]; t-PA 0.083 mg/kg, parametric Dunnett's test, P<0.0001) | D-dimer level Mean ([1]; compound A 2.5 μg/kg (free form) alone, 25 min after start of tissue factor) | fibrinolytic activity (D-dimer level) with respect to the control (saline) group ([1]; compound A 2.5 μg/kg, Student's t test, P=0.1431) | D-dimer level Mean ([2]; compound A 2.5 μg/kg (free form) alone, jugular vein, blood at 45 min, N=8, control 24.2) | fibrinolytic activity (D-dimer level) with respect to the control group ([2]; compound A 2.5 μg/kg single administration, Student's t test, P=0.0019) |
| --- | --- | --- | --- | --- | --- | --- | --- | --- | --- | --- |
| t-PA: tissue plasminogen activator, alteplase (Activacin for Injection 6,000,000, Kyowa Hakko Kirin) | 25.0 µg/mL | did not exhibit significantly excellent fibrinolytic activity | 95.2 µg/mL | exhibited significantly excellent fibrinolytic activity | 254.7 µg/mL | exhibited significantly excellent fibrinolytic activity | – | – | – | – |
| C[C@H]1CC[C@H](n2cnc(C[C@H](CCCN)C(=O)O)c2)CC1.Cc1ccc(S(=O)(=O)O)cc1 (relative stereo) [Compound A, (2S)-5-Amino-2-{[1-(trans-4-methylcyclohexyl)-1H-imidazol-4-yl]methyl}valeric acid p-toluenesulfonate anhydrate] | – | – | – | – | – | – | 26.4 µg/mL | did not exhibit significantly excellent fibrinolytic activity | 103.8 µg/mL | exhibited significantly excellent fibrinolytic activity |
